Test results reported in ChEMBL document CHEMBL1201862, “PubChem BioAssay data set” (2004).
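Where inhibition never reached the appropriate level, the endpoint shown equals the highest concentration tested. Otherwise, values were interpolated linearly from a five-concentration, 48-hour dose response in 96-well plates. Here, GI50 denotes the concentration required for 50% inhibition of growth.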 Active and inactive are the calls of the source. Cut-off read from the data, not from the text of the source: active = GI50 up to about 1.1 µM and inactive = higher.

Assays:
Test in all cases: NCI-60 cell line screen, 48 h
[1] = system: RXF 393
[2] = system: RPMI-8226
[3] = system: Hs-578T
[4] = system: NCI/ADR-RES
[5] = system: OVCAR-8
[6] = system: K562
[7] = system: NCI-H522
[8] = system: SNB-19
[9] = system: UACC-62
[10] = system: A498
[11] = system: ACHN
[12] = system: Malme-3M
[13] = system: MDA-MB-231
[14] = system: CAKI-1
[15] = system: LOX IMVI
[16] = system: CCRF-CEM
[17] = system: U-251
[18] = system: T47D
[19] = system: TK-10
[20] = system: EKVX

CCOC(=O)N1c2ccccc2N(C(=O)OCC)C1CC(=O)/C=C/c1ccccc1
GI50 [1]: 3.85 µM (inactive) | GI50 [2]: 3.19 µM (inactive) | GI50 [3]: 1.87 µM (inactive) | GI50 [4]: 2.73 µM (inactive) | GI50 [5]: 2.65 µM (inactive) | GI50 [6]: 3.72 µM (inactive) | GI50 [7]: 1.78 µM (inactive) | GI50 [8]: 3.28 µM (inactive) | GI50 [9]: 2.7 µM (inactive) | GI50 [10]: 3.37 µM (inactive) | GI50 [11]: 4.15 µM (inactive) | GI50 [12]: 4.06 µM (inactive) | GI50 [13]: 4.03 µM (inactive) | GI50 [14]: 1.44 µM (inactive) | GI50 [15]: 2.45 µM (inactive) | GI50 [16]: 1.86 µM (inactive) | GI50 [17]: 3.46 µM (inactive) | GI50 [18]: 5.16 µM (inactive) | GI50 [19]: 3.74 µM (inactive) | GI50 [20]: 2.79 µM (inactive)

COc1cccc(-c2cc(O)c3cc(N4CCN(C)CC4)ccc3n2)c1
GI50 [1]: 1.18 µM (inactive) | GI50 [2]: 3.35 µM (inactive) | GI50 [3]: 0.774 µM (active) | GI50 [4]: 1.47 µM (inactive) | GI50 [5]: 2.01 µM (inactive) | GI50 [6]: 0.628 µM (active) | GI50 [7]: 1.57 µM (inactive) | GI50 [8]: 2.77 µM (inactive) | GI50 [9]: 1.28 µM (inactive) | GI50 [10]: 1.06 µM (active) | GI50 [11]: 5.25 µM (inactive) | GI50 [12]: 0.641 µM (active) | GI50 [13]: 3.34 µM (inactive) | GI50 [14]: 2.66 µM (inactive) | GI50 [15]: 1.73 µM (inactive) | GI50 [16]: 0.986 µM (active) | GI50 [17]: 0.785 µM (active) | GI50 [18]: > 10 µM (inactive) | GI50 [19]: 9.64 µM (inactive) | GI50 [20]: 3.37 µM (inactive)

Nc1nc(Cl)cc(NCC2(CO)CCC(Cc3ccccc3)C2)n1 (stereo not given)
GI50 [1]: 28.5 µM (inactive) | GI50 [2]: 12 µM (inactive) | GI50 [3]: 25.4 µM (inactive) | GI50 [4]: 20.3 µM (inactive) | GI50 [5]: 15.6 µM (inactive) | GI50 [6]: 1.21 µM (inactive) | GI50 [7]: 10.1 µM (inactive) | GI50 [8]: 33.5 µM (inactive) | GI50 [9]: 11.9 µM (inactive) | GI50 [10]: 12.6 µM (inactive) | GI50 [11]: 20 µM (inactive) | GI50 [12]: 10.2 µM (inactive) | GI50 [13]: 33 µM (inactive) | GI50 [14]: 19.3 µM (inactive) | GI50 [15]: 8.59 µM (inactive) | GI50 [16]: 6.68 µM (inactive) | GI50 [17]: 25.6 µM (inactive) | GI50 [18]: 6.5 µM (inactive) | GI50 [19]: 26 µM (inactive) | GI50 [20]: 8.71 µM (inactive)

CC[C@@H]1CC[C@@H]2[C@H](CC[C@]3(C)[C@@H](O)CC[C@@H]23)[C@H]1CO
GI50 [1]: > 100 µM (inactive) | GI50 [2]: 67 µM (inactive) | GI50 [3]: > 100 µM (inactive) | GI50 [4]: 91.4 µM (inactive) | GI50 [5]: > 100 µM (inactive) | GI50 [6]: 51.1 µM (inactive) | GI50 [7]: 44.6 µM (inactive) | GI50 [8]: > 100 µM (inactive) | GI50 [9]: 79.8 µM (inactive) | GI50 [10]: > 100 µM (inactive) | GI50 [11]: > 100 µM (inactive) | GI50 [12]: > 100 µM (inactive) | GI50 [13]: > 100 µM (inactive) | GI50 [14]: > 100 µM (inactive) | GI50 [15]: > 100 µM (inactive) | GI50 [16]: > 100 µM (inactive) | GI50 [17]: > 100 µM (inactive) | GI50 [18]: 70.5 µM (inactive) | GI50 [19]: > 100 µM (inactive) | GI50 [20]: > 100 µM (inactive)

CN(C)CCNC1=Nc2ccccc2C(=O)N2CSCC12 (stereo not given)
GI50 [1]: > 100 µM (inactive) | GI50 [2]: > 100 µM (inactive) | GI50 [3]: > 100 µM (inactive) | GI50 [4]: > 100 µM (inactive) | GI50 [5]: > 100 µM (inactive) | GI50 [6]: > 100 µM (inactive) | GI50 [7]: > 100 µM (inactive) | GI50 [8]: > 100 µM (inactive) | GI50 [9]: > 100 µM (inactive) | GI50 [10]: > 100 µM (inactive) | GI50 [11]: > 100 µM (inactive) | GI50 [12]: > 100 µM (inactive) | GI50 [13]: > 100 µM (inactive) | GI50 [14]: > 100 µM (inactive) | GI50 [15]: > 100 µM (inactive) | GI50 [16]: > 100 µM (inactive) | GI50 [17]: > 100 µM (inactive) | GI50 [18]: > 100 µM (inactive) | GI50 [19]: > 100 µM (inactive) | GI50 [20]: > 100 µM (inactive)
